Experimental findings from ChEMBL document CHEMBL5338745, “Factor XIa Inhibitors in Anticoagulation Therapy: Recent Advances and Perspectives” (J Med Chem, 2023) are described below.

Data set [1] concerns the target T1, Plasma kallikrein (Homo sapiens, UniProt P03952).
In data set [2] the target is T2, Coagulation factor XI (Homo sapiens, UniProt P03951). Briefly: Inhibition of human FXIa by absorbance based analysis.
A short description of data set [3]: Half life in IG dosed Beagle dog measured upto 24 hrs by LC/MS analysis. The format is ADME, organism-based, Canis lupus familiaris. The note with it: in vivo, po.
Data set [4] can be described thus: Oral bioavailability in Beagle dog measured upto 24 hrs by LC/MS analysis. The format is ADME, organism-based, Canis lupus familiaris. The conditions noted are these: in vivo.
Data set [5] addresses T2, Coagulation factor XI. Briefly: Inhibition of FXIa (unknown origin).
Data set [6] can be described thus: Half life in Sprague-Dawley rat at 0.5 mg/kg, iv. The format is ADME, organism-based. The note with it: in vivo.
Data set [7] relates to Plasma. Briefly: Anticoagulant activity in human plasma assessed as concentration required to double the activated partial thromboplastin time. The format is functional.
A short description of data set [8]: Clearance in Sprague-Dawley rat at 0.5 mg/kg, iv. The format is ADME, organism-based. The conditions noted are these: in vivo.
Data set [9] is described as follows: Oral bioavailability in Sprague-Dawley rat at 3 mg/kg. The conditions noted are these: in vivo. It counts as ADME, organism-based.
A short description of data set [10]: Half life in Sprague-Dawley rat at 1 mg/kg, iv. The format is ADME, organism-based. The note with it: in vivo.
Data set [11] in a line: Oral bioavailability in Sprague-Dawley rat incubated upto 24 hrs by LC-MS/MS analysis. The note with it: in vivo. The format is ADME, organism-based.
Data set [12] is described as follows: Metabolic stability in mouse liver microsomes assessed as half life. It counts as ADME, Microsome.
Data set [13] in a line: Metabolic stability in dog liver microsomes assessed as half life. It counts as ADME, Canis lupus familiaris, Microsome.
Data set [14] is described as follows: MRT in iv dosed rat measured upto 8 hrs by LC-MS/MS analysis. It counts as ADME, organism-based. The note with it: in vivo.
In another data set the target is Complement factor D (Homo sapiens, UniProt P00746). The experiment in a line: Inhibition of FD (unknown origin).
Complement factor D, sequence (P00746 whole entry): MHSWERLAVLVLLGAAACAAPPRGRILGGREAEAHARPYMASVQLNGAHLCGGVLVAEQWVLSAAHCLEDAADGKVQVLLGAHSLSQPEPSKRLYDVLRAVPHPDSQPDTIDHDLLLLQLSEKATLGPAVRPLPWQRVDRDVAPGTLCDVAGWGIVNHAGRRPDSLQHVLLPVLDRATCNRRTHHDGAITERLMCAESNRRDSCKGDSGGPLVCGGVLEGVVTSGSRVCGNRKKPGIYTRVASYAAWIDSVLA
Data set [15] in a line: Half life in mouse. It counts as ADME, organism-based. The note with it: in vivo.
A short description of data set [16]: Clearance in mouse. It counts as ADME, organism-based. The note with it: in vivo.
Data set [17] in a line: Oral bioavailability in mouse. It counts as ADME, organism-based. The conditions noted are these: in vivo.
Data set [18] in a line: Selectivity index, ratio IC50 for FXIa (unknown origin) to IC50 for FD (unknown origin).
For data set [19], the system named is Plasma. Briefly: Anticoagulant activity in human plasma assessed as concentration required to double the prothrombin time. The format is functional.
The target of data set [20] is T2, Coagulation factor XI. The experiment in a line: Binding affinity to FXIa (unknown origin) assessed as inhibition constant.
The target of data set [21] is T1, Plasma kallikrein. The experiment in a line: Binding affinity to PKal (unknown origin) assessed as inhibition constant.
Data set [22] relates to Plasma. The experiment in a line: Anticoagulant activity in human plasma assessed as concentration required to 1.5 times activation of partial thromboplastin time. It counts as functional.
A short description of data set [23]: Clearance in rat at 1 mg/kg, iv. It counts as ADME, organism-based. The conditions noted are these: in vivo.
The nature of data set [24]: Oral bioavailability in rat at 1.5 mg/kg. It counts as ADME, organism-based. The note with it: in vivo.

T2 sequence (P03951 19-387 limits assumed): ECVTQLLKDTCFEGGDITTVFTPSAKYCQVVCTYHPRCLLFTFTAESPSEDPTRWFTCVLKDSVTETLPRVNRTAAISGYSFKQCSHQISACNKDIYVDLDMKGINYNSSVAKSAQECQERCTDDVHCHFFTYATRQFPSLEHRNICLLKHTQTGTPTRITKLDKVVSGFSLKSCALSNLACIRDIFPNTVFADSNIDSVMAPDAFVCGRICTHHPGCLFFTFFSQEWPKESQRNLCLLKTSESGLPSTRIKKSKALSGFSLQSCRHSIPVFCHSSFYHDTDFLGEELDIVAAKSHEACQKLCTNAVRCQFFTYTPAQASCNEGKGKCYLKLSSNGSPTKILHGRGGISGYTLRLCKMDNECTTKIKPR
T2 sequence (P03951 388-625 limits assumed): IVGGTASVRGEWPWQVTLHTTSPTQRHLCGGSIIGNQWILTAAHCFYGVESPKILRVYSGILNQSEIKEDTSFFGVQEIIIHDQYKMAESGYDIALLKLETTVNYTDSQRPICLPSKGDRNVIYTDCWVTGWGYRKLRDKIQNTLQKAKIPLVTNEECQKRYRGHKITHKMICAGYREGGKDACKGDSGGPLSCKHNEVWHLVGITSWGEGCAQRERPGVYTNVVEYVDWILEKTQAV
T1 sequence (P03952 20-390 limits assumed): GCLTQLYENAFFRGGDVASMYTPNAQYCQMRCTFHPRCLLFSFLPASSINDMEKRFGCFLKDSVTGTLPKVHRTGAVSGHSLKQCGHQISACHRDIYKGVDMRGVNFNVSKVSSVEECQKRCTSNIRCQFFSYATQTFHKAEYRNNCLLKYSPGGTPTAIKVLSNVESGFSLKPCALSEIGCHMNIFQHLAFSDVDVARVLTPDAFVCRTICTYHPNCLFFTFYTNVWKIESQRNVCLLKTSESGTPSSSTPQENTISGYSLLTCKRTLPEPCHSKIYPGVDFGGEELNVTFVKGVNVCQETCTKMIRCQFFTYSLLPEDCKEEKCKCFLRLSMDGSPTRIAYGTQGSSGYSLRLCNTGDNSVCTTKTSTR
T1 sequence (P03952 391-638 limits assumed): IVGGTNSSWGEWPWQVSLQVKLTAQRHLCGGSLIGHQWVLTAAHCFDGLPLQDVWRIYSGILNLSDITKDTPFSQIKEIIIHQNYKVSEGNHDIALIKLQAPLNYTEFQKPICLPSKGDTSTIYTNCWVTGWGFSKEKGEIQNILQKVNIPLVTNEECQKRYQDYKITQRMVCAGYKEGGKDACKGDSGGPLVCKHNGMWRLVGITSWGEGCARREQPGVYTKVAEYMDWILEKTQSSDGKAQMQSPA

For `COc1nn([C@@H](Cc2ccccc2)C(=O)Nc2ccc(C(=O)O)cc2)c(=O)cc1-c1cc(Cl)ccc1C(C)=O`, the Ki is 103 nM at Plasma kallikrein [1] and 1.6 nM on Coagulation factor XI [2]. The half-life in data set [3] is 4.5 h. In data set [4], this compound displayed a bioavailability of 49.6%.
As to `C[C@@H]1CCC[C@H](c2ccc(-c3cc(Cl)ccc3-n3cc(Cl)nn3)oc2=O)c2cc(ccn2)-c2c(cnn2C(F)F)NC1=O`, the IC50 on Coagulation factor XI [5] was found to be 3.9 nM. Besides, the half-life in data set [6] was 1 h. Moreover, in the data set on Plasma [7], the EC was determined as 0.87 µM. This compound registered a clearance in [8] of 5.65 mL/min/kg. Also, the bioavailability in data set [9] was 37.1%.
In the case of `COCC[C@@H](C(=O)Nc1ccc2nn(C)cc2c1)N1CC(=O)N(c2cc(Cl)ccc2-n2cc(Cl)nn2)CC1=O`, the EC in the data set with Plasma [7] worked out at 5.3 µM. Moreover, the half-life in [10] is 1.5 h; in data set [12], over 5 h; in data set [13], over 15 h. Further, the bioavailability in data set [11] was 72.5%.
Turning to `COC(=O)Nc1ccc2c(c1)NC(=O)[C@H](C)CCC[C@H](c1ccc(-c3cc(Cl)ccc3-n3cc(C(F)(F)F)cn3)c[n+]1[O-])c1nc-2c(C)[nH]1`, the MRT in data set [14] is 11 h. Besides, the IC50 against Coagulation factor XI [5] amounted to 0.9 nM; against Plasma kallikrein [1], 42 nM.
With `CC(C)c1cc(-c2ccc3c(c2)[C@H](N)CO3)cc([C@@H](O)CN2CCc3cccc(C(=O)O)c32)c1`, the IC50 at Coagulation factor XI [5] is 0.4 nM; against Plasma kallikrein [1] it was 1 nM; against Complement factor D, over 5000 nM. Besides, the EC in the data set on Plasma [7] stood at 1.3 µM; in the data set with Plasma [19], 28.7 µM. Besides, the half-life in [15] was 3.73 h. Moreover, the clearance in data set [16] is 11 mL/min/kg. Moreover, the bioavailability in data set [17] was 100%. For the same compound, the Ratio IC50 in data set [18] is 10000.
As to `COC(=O)NCC[C@@H]1Cc2cccc(c2)[C@@H](n2cnc(-c3cc(Cl)ccc3-n3cc(C(F)(F)F)cn3)cc2=O)CCC[C@@H](C)C(=O)N1`, the values for the Ki at Coagulation factor XI [20] and on Plasma kallikrein [21] were 5 nM and 1790 nM, respectively.
As to `O=C(O)c1ccc(NC(=O)[C@H](CC2CC2)c2ccc(-c3c(C(F)F)ccc(Cl)c3F)c[n+]2[O-])cc1` (mixture of isomers), in the data set on Plasma [22], the EC stood at 0.61 µM. Moreover, the clearance in data set [23] was 1.9 mL/min/kg. Further, in data set [24], the bioavailability amounted to 89%.
